Measured values taken from US9296708B2, “Chimeric small molecules for the recruitment of antibodies to cancer cells” (YALE UNIVERSITY, priority 2008, dated 2016).
Residues, ends and D or L forms follow the SMILES beside them.

Legend:
Format in all cases: biochemical
[1] = biological target: T1, rhPSMA (Homo sapiens (Human), UniProt Q04609); assay: PSMA inhibition assay (NAAG hydrolysis, Amplex Red); settings: for IC50: mean of triplicate experiments ± SD
[2] = biological target: T1, rhPSMA; assay: Measurement of PSMA Km; settings: NAAG substrate, 40 μM-312.5 nM, room temperature 15 min
Method: A 10 mM solution of N-acetyl-aspartylglutamate (NAAG) in 40 mM NaOH, and was then diluted in Reaction Buffer (100 mM Tris-HCl, pH 7.5) to a final NAAG concentration of 40 µM. The solution was added to a 384 well plate (20 µL per well). […] Reaction Buffer (20 µL) was added to the Km control series. The plate was incubated at room temperature for 15 min, and then heated to 95° C. for 3 minutes. The plate was allowed to cool to room temperature, and glutamic acid levels were measured using a commercially available Amplex®—Red Glutamic Acid/Glutamate Oxidase Assay Kit (Invitrogen). Fluorescence intensities were measured using a Synergy 2 multiwell plate reader (Biotek), fitted with excitation and emission filters of 545 nm and 590 nm, respectively. […] This value is consistent with that reported in the literature^7 and was employed in subsequent Ki calculations (see below).

[3] = biological target: human recombinant PSMA (rhPSMA) (Homo sapiens (Human), UniProt Q04609); assay: NAALADase inhibition experiments (Amplex Red glutamate release); settings: human recombinant PSMA (R&D Research); average of three runs ± standard deviation
human recombinant PSMA (rhPSMA), sequence (Q04609 44-750 limits assumed): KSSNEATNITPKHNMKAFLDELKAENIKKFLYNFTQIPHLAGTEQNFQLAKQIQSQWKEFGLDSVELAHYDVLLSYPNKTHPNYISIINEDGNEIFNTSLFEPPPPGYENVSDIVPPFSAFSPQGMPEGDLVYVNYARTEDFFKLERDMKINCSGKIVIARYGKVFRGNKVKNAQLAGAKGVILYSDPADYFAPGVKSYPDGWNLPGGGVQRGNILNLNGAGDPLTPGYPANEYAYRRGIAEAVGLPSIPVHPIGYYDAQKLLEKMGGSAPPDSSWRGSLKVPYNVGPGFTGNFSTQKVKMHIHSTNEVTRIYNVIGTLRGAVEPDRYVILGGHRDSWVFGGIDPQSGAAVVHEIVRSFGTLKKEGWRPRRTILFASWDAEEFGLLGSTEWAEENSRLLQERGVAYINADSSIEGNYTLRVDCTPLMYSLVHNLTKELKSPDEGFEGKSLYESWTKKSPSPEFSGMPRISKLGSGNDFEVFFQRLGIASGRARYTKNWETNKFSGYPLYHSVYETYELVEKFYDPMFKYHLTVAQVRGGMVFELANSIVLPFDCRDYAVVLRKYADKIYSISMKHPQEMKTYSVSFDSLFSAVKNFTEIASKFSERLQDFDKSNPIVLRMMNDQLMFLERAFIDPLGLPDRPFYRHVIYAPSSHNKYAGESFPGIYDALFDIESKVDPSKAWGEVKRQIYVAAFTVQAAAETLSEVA
Method: A 10 mM stock solution of N-acetyl-aspartyl-glutamate (NAAG) in 40 mM NaOH was diluted to 40 μM in Tris buffer (0.1M Tris-HCl, pH=7.5), and was added to 384 well plate (25 μl per well). […] For IC50 measurements, solutions of recruiting molecule 3 in water (2 μL per well, dilution series) were added to wells. For all other wells, 2 μL of water was added. To initiate reactions, rhPSMA (R&D research) diluted in Tris buffer (20 pg/mL), was added to each well (25 μl per well). For negative controls, Tris buffer was added (25 μl per well). The plate was covered and incubated for 15 minutes, at which time the protein was deactivated by heating the plate to 95° C. for 3 minutes. After plate was allowed to cool, glutamic acid release was visualized using an Amplex®-Red glutamic acid/glutamate oxidase assay kit (Invitrogen). Km and IC50 values were calculated using graphpad prism software, and Ki was calculated from these values using the Cheng-Prusoff Equation. This process was run in triplicate, and is reported in the manuscript as the average of three runs±standard deviation.

[4] = Table 1, from IC50 and Km via Cheng-Prusoff equation
[5] = Table 2, Cheng-Prusoff equation, Km 925 nM

T1 sequence (Q04609 44-750): as the sequence (Q04609 44-750 limits assumed) above

Row | Ki [1, 5] [nM] | IC50 ([1]; Table 2) [nM] | Structure (SMILES) | Ki [1, 4] [nM] | IC50 ([1]; Table 1, 20 μM NAAG) [nM] | other results
1 |  |  | O=C(O)CC[C@H](NC(=O)N[C@@H](CCCCn1cc(CNc2ccc([N+](=O)[O-])cc2[N+](=O)[O-])nn1)C(=O)O)C(=O)O [1, ARM-P0, (S)-2-(3-((S)-1-carboxy-5-(4-((2,4-dinitrophenylamino)methyl)-1H-1,2,3-triazol-1-yl)pentyl)ureido)pentanedioic acid] | 0.078 ± 0.018 | 1.76 ± 0.41 | 
2 |  |  | O=C(O)CC[C@H](NC(=O)N[C@@H](CCCCn1cc(COCCNc2ccc([N+](=O)[O-])cc2[N+](=O)[O-])nn1)C(=O)O)C(=O)O [2, ARM-P1, (S)-2-(3-((S)-1-carboxy-5-(4-((2-(2,4-dinitrophenylamino)ethoxy)methyl)-1H-1,2,3-triazol-1-yl)pentyl)ureido)pentanedioic acid] | 0.047 ± 0.005 | 1.05 ± 0.11 | 
3 |  |  | O=C(O)CC[C@H](NC(=O)N[C@@H](CCCCn1cc(COCCOCCOCCOCCOCCOCCNc2ccc([N+](=O)[O-])cc2[N+](=O)[O-])nn1)C(=O)O)C(=O)O [5, ARM-P6] | 0.101 ± 0.027 | 2.29 ± 0.6 | 
4 |  |  | O=C(O)CC[C@H](NC(=O)N[C@@H](CCCCn1cc(COCCOCCOCCOCCOCCOCCOCCOCCOCCOCCOCCOCCNc2ccc([N+](=O)[O-])cc2[N+](=O)[O-])nn1)C(=O)O)C(=O)O [7, ARM-P12] | 1.65 ± 0.72 | 37.3 ± 16.2 | 
5 |  |  | COCc1cn(CCCC[C@H](NC(=O)N[C@@H](CCC(=O)O)C(=O)O)C(=O)O)nn1 [8, MeO-P0, (S)-2-(3-((S)-1-carboxy-5-(4-(methoxymethyl)-1H-1,2,3-triazol-1-yl)pentyl)ureido)pentanedioic acid] | 1.35 ± 0.54 | 30.5 ± 12.1 | 
6 |  |  | COCCOCCOCc1cn(CCCC[C@H](NC(=O)N[C@@H](CCC(=O)O)C(=O)O)C(=O)O)nn1 [9, MeO-P2, (S)-2-(3-((S)-1-carboxy-5-(4-((2-(2-methoxyethoxy)ethoxy)methyl)-1H-1,2,3-triazol-1-yl)pentyl)ureido)pentanedioic acid] | 1.81 ± 0.42 | 40.8 ± 9.4 | 
7 |  |  | COCCOCCOCCOCCOCCOCCOCCOCCOCc1cn(CCCC[C@H](NC(=O)N[C@@H](CCC(=O)O)C(=O)O)C(=O)O)nn1 [11, MeO-P8, (S)-2-(3-((S)-5-(4-2,5,8,11,14,17,20,23,26-nonaoxaheptacosyl-1H-1,2,3-triazol-1-yl)-1-carboxypentyl)ureido)pentanedioic acid] | 5.79 ± 2.54 | 131 ± 57.6 | 
8 |  |  | COCCOCCOCCOCCOCCOCCOCCOCCOCCOCCOCCOCCOCc1cn(CCCC[C@H](NC(=O)N[C@@H](CCC(=O)O)C(=O)O)C(=O)O)nn1 [12, MeO-P12, (S)-2-(3-((S)-5-(4-2,5,8,11,14,17,20,23,26,29,32,35,38-tridecaoxanonatriacontyl-1H-1,2,3-triazol-1-yl)-1-carboxypentyl)ureido)pentanedioic acid] | 7.3 ± 2.6 | 165 ± 58.9 | 
9 | 0.078 ± 0.007 | 1.78 ± 0.15 | O=C(O)CC[C@H](NC(=O)N[C@@H](CCCCn1cc(COCCOCCNc2ccccc2[N+](=O)[O-])nn1)C(=O)O)C(=O)O [Compound 13, (S)-2-(3-((S)-1-carboxy-5-(4-((2-(2-(2-nitrophenylamino)ethoxy)ethoxy)methyl)-1H-1,2,3-triazol-1-yl)pentyl)ureido)pentanedioic acid] |  |  | Ki ([1]; Table 2 analogues): 0.06 nM
10 | 0.06 ± 0.008 | 1.36 ± 0.18 | O=C(O)CC[C@H](NC(=O)N[C@@H](CCCCn1cc(COCCOCCNc2ccc([N+](=O)[O-])cc2)nn1)C(=O)O)C(=O)O [Compound 14, (S)-2-(3((S)-1-carboxy-5-(4-((2-(2-(4-nitrophenylamino)ethoxy)ethoxy)methyl)-1H-1,2,3-triazol-1-yl)pentyl)ureido)pentanedioic acid] |  |  | Ki ([1]; Table 2 analogues): 0.078 nM
11 | 0.73 ± 0.28 | 16.6 ± 6.3 | O=C(O)CC[C@H](NC(=O)N[C@@H](CCCCn1cc(COCCOCCNc2ccccc2)nn1)C(=O)O)C(=O)O [Compound 15, (S)-2-(3-((S)-1-carboxy-5-(4-((2-(2-(phenylamino)ethoxy)ethoxy)methyl)-1H-1,2,3-triazol-1-yl)pentyl)ureido)pentanedioic acid] |  |  | Ki ([1]; Table 2 analogues): 0.73 nM
12 | 0.97 | 21.9 ± 9.9 | COc1ccc(NCCOCCOCc2cn(CCCC[C@H](NC(=O)N[C@@H](CCC(=O)O)C(=O)O)C(=O)O)nn2)cc1 [Compound 16, (S)-2-(3-((S)-1-carboxy-5-(4-((2-(2-(4-methoxyphenylamino)ethoxy)ethoxy)methyl)-1H-1,2,3-triazol-1-yl)pentyl)ureido)pentanedioic acid] |  |  | Ki ([1]; Table 2 analogues): 0.97 nM
13 | 15.1 | 342 ± 170 | O=C(O)CC[C@H](NC(=O)N[C@@H](CCCCn1cc(COCCOCCNC2CCCCC2)nn1)C(=O)O)C(=O)O [Compound 17, (S)-2-(3-((S)-1-carboxy-5-(4-((2-(2-(cyclohexylamino)ethoxy)ethoxy)methyl)-1H-1,2,3-triazol-1-yl)pentyl)ureido)pentanedioic acid] |  |  | 
14 |  |  | CC(=O)N[C@@H](CC(=O)O)C(=O)N[C@@H](CCC(=O)O)C(=O)O [NAAG, N-acetyl-aspartylglutamate] (Ac-Asp-Glu-OH) |  |  | Km [2]: 0.925 µM
15 |  |  | CC(C)(C)OC(=O)CC[C@H](NC(=O)N[C@@H](CCCCn1cc(COCCOCCOCCOCCNc2ccc([N+](=O)[O-])cc2[N+](=O)[O-])nn1)C(=O)OC(C)(C)C)C(=O)OC(C)(C)C [PC-ARM (3), (S)-di-tert-butyl 2-(3-((S)-1-tert-butoxy-6-(4-(13-(2,4-dinitrophenylamino)-2,5,8,11-tetraoxamidecyl)-1H-1,2,3-triazol-1-yl)-1-oxohexan-2-yl)ureido)pentanedioate] |  |  | Ki [3]: 0.9 ± 0.3 nM
